This is an account of results in patent US11459315B2, “Modulators of methyl modifying enzymes, compositions and uses thereof” (Constellation Pharmaceuticals, Inc., priority 2017, dated 2022).

Where two headings read alike, the source gives them in different places.

For one assay, the target named is PRC2 containing wt EZH2 (Homo sapiens (Human), UniProt Q15910). The experiment in a line: EZH2 biochemical assay (IC50), 3H-SAM incorporation into biotinylated H3 peptide. Conditions: 30 pM PRC2 containing wt EZH2, 3-5 h pre-incubation. The method in brief:
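The PRC2 pentamer with wt EZH2 (30 pM) was pre-incubated for 3-5 h with 450 nM SAM plus 450 nM ³H-SAM, 2 µM H3K27me3 activating peptide and compound (0.8% DMSO) in Tris at pH 8.5. Biotinylated H3K27me1 peptide was added and the reaction ran 18-22 h at RT. Incorporated ³H was captured on streptavidin plates, and IC50 was taken from a four-parameter fit.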

Assay [1] concerns H3K27me3 mark in HeLa cells (EZH2). Kind of assay: H3K27me3 Alpha Hela Assay (AlphaLISA). Type of assay: cell-based. Particulars: Homo sapiens, HeLa, 72 h, HeLa cells, 72 hrs; read-out: EZH2 Cell H3K27me3 Alpha HeLa (EC50 K27me3). The method in brief:
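HeLa cells (1,000/well) treated with ten 3-fold compound doses for 72 h at 37 °C; lysates extracted and H3K27me3 detected by AlphaLISA with anti-K27me3 acceptor beads, biotinylated anti-H3 (3 nM) and streptavidin donor beads. EC50 from DMSO-normalized dose-response curves; duplicate plate assessed viability.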

Chain of PRC2 containing wt EZH2 (Q15910 whole entry): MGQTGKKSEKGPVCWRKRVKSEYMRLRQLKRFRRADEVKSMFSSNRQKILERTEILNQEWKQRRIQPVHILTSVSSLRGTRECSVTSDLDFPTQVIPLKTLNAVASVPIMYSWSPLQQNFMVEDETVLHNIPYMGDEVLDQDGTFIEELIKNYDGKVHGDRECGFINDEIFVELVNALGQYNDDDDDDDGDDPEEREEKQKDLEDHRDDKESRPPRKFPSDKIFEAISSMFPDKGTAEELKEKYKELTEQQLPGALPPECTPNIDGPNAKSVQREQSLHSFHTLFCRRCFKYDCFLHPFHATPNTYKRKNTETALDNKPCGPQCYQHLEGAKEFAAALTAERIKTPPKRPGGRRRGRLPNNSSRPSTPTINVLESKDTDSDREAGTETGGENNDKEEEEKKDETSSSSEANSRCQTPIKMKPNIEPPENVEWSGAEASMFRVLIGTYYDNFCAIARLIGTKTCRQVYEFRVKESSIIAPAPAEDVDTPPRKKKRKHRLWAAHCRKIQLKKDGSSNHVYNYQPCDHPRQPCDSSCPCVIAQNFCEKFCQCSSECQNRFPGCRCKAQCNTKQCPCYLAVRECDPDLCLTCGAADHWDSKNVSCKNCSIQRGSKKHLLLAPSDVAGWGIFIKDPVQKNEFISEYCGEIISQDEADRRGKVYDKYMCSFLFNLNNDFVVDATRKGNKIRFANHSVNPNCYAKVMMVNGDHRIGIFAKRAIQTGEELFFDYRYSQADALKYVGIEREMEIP
Chain of PRC2 containing wt EZH2 (O75530 whole entry partner): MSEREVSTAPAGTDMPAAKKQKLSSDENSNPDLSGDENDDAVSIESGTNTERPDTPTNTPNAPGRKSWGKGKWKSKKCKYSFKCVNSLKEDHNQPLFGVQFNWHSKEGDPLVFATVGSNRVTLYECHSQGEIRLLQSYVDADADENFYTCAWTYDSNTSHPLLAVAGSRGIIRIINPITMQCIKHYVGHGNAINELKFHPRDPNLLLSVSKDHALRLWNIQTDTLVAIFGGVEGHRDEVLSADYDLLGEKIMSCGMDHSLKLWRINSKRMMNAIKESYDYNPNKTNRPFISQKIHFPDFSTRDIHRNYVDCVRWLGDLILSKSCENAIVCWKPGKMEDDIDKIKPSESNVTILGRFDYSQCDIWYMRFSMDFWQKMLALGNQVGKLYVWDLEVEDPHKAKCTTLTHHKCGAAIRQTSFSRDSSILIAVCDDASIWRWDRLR
Chain of PRC2 containing wt EZH2 (Q15022 whole entry partner): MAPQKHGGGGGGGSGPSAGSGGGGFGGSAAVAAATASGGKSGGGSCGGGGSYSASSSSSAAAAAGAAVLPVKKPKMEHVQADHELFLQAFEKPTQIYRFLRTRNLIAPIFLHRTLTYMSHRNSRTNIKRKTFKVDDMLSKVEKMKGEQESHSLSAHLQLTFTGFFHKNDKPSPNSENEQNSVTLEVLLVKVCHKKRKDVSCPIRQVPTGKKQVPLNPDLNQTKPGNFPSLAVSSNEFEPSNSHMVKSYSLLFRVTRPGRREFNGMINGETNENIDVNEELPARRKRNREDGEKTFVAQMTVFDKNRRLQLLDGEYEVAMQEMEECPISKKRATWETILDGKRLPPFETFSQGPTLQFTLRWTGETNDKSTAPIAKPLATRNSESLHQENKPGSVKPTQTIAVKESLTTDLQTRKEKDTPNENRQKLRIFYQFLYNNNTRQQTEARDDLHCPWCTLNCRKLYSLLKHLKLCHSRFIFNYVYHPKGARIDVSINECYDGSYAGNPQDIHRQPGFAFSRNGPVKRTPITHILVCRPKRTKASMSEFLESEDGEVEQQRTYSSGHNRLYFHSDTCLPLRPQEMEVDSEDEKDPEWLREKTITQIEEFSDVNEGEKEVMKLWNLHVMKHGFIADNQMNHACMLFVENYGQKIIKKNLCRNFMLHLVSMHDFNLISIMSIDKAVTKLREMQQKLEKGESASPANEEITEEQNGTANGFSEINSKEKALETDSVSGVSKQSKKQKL
Chain of PRC2 containing wt EZH2 (Q09028 whole entry partner): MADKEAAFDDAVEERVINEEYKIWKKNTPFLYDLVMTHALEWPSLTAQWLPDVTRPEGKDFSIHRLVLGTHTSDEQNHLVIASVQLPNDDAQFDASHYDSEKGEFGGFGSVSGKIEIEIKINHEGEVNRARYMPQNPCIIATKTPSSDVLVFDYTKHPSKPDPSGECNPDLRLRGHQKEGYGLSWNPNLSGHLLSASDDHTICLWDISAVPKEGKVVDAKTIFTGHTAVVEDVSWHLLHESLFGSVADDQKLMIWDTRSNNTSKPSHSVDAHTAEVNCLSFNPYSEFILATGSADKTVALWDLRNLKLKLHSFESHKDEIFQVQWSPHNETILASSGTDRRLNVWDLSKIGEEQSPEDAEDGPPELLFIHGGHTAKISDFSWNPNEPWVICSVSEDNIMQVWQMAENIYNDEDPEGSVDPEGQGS
Chain of PRC2 containing wt EZH2 (Q6ZN18 whole entry partner): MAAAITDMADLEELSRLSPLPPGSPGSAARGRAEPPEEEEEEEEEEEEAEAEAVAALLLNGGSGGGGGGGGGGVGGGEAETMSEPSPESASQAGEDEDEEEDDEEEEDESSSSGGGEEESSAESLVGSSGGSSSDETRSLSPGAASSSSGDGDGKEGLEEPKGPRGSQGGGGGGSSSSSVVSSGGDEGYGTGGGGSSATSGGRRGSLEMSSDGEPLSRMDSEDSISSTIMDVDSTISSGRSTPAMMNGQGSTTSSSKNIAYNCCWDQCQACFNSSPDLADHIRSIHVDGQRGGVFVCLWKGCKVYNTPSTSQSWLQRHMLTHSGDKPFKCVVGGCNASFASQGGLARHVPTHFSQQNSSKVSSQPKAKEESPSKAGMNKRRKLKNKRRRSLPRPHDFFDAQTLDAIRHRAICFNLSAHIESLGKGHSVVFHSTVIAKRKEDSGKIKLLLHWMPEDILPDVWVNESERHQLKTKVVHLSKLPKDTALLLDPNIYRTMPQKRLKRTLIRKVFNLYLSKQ

`CSc1cc(C)[nH]c(=O)c1CNC(=O)c1c(C)n([C@H](C)C2CCN(CC(F)(F)F)CC2)c2ncccc12` [Example 25, (R)-2-methyl-N-((6-methyl-4-(methylthio)-2-oxo-1,2-dihydropyridin-3-yl)methyl)-1-(1-(1-(2,2,2-trifluoroethyl)piperidin-4-yl)ethyl)-1H-pyrrolo[2,3-b]pyridine-3-carboxamide] registered an IC50 on PRC2 containing wt EZH2 (EZH2 (IC50)) below 0.5 nM. Further, the concentration giving a half-maximal response (EC50) in assay [1] was below 10 nM.
The like results for `CSc1cc(C)[nH]c(=O)c1CNC(=O)c1c(C)n([C@H](C)C2CCN(C3CC3)CC2)c2ncccc12` [Example 26, (R)-1-(1-(1-cyclopropylpiperidin-4-yl)ethyl)-2-methyl-N-((6-methyl-4-(methylthio)-2-oxo-1,2-dihydropyridin-3-yl)methyl)-1H-pyrrolo[2,3-b]pyridine-3-carboxamide] were, in that order, below 0.5 nM and below 10 nM.
On to `CSc1cc(C)[nH]c(=O)c1CNC(=O)c1c(C)n([C@H](C)C2CCC(N3CC(OC(F)F)C3)CC2)c2cc(F)ccc12` (stereo partly drawn) [Example 29, 1-((R)-1-(4-(3-(difluoromethoxy)azetidin-1-yl)cyclohexyl)ethyl)-6-fluoro-2-methyl-N-((6-methyl-4-(methylthio)-2-oxo-1,2-dihydropyridin-3-yl)methyl)-1H-indole-3-carboxamide], for which, on PRC2 containing wt EZH2 (read-out: EZH2 (IC50)), the 50% inhibitory concentration (IC50) is below 0.5 nM. In addition, the EC50 in assay [1] is below 10 nM.
In the case of `CSc1cc(C)[nH]c(=O)c1CNC(=O)c1c(C)n([C@H](C)CO)c2ccccc12` [Example 31, (R)-1-(1-hydroxypropan-2-yl)-2-methyl-N-((6-methyl-4-(methylthio)-2-oxo-1,2-dihydropyridin-3-yl)methyl)-1H-indole-3-carboxamide], on PRC2 containing wt EZH2 (read-out: EZH2 (IC50)), the IC50 is above 5 nM. Besides, in assay [1], the half-maximal effective concentration (EC50) was above 100 nM.
On to `COC[C@@H](C)n1c(C)c(C(=O)NCc2c(SC)cc(C)[nH]c2=O)c2ccccc21` [Example 32, (R)-1-(1-methoxypropan-2-yl)-2-methyl-N-((6-methyl-4-(methylthio)-2-oxo-1,2-dihydropyridin-3-yl)methyl)-1H-indole-3-carboxamide], for which, on PRC2 containing wt EZH2 (EZH2 (IC50)), the IC50 was below 0.5 nM. For the same molecule, the EC50 in assay [1] was 10 to 100 nM.
Consider `CCOC[C@@H](C)n1c(C)c(C(=O)NCc2c(SC)cc(C)[nH]c2=O)c2ccccc21` [Example 33, (R)-1-(1-ethoxypropan-2-yl)-2-methyl-N-((6-methyl-4-(methylthio)-2-oxo-1,2-dihydropyridin-3-yl)methyl)-1H-indole-3-carboxamide], for which, on PRC2 containing wt EZH2 (EZH2 (IC50)), the IC50 fell in the range of 0.5 to 5 nM. Also, the EC50 in assay [1] lay within 10 to 100 nM.
With `CSc1cc(C)[nH]c(=O)c1CNC(=O)c1c(C)n([C@@H](C)c2cnc(C)nc2)c2ccccc12` [Example 34, (S)-2-methyl-N-((6-methyl-4-(methylthio)-2-oxo-1,2-dihydropyridin-3-yl)methyl)-1-(1-(2-methylpyrimidin-5-yl)ethyl)-1H-indole-3-carboxamide], the IC50 at PRC2 containing wt EZH2 (read-out: EZH2 (IC50)) is above 5 nM. Besides, the 50% effective concentration (EC50) in assay [1] is above 100 nM.
The like results for `CSc1cc(C)[nH]c(=O)c1CNC(=O)c1c(C)n([C@H](C)c2cnc(C)nc2)c2ccccc12` [Example 35, (R)-2-methyl-N-((6-methyl-4-(methylthio)-2-oxo-1,2-dihydropyridin-3-yl)methyl)-1-(1-(2-methylpyrimidin-5-yl)ethyl)-1H-indole-3-carboxamide] were, in that order, above 5 nM and above 100 nM.
With `CSc1cc(C)[nH]c(=O)c1CNC(=O)c1c(C)n([C@H](C)[C@H]2CCNC[C@@H]2F)c2ccccc12` [Example 37, 1-((R)-1-((3R,4R)-3-fluoropiperidin-4-yl)ethyl)-2-methyl-N-((6-methyl-4-(methylthio)-2-oxo-1,2-dihydropyridin-3-yl)methyl)-1H-indole-3-carboxamide], at PRC2 containing wt EZH2 (EZH2 (IC50)), the IC50 is below 0.5 nM. The EC50 in assay [1] is 10 to 100 nM.
Taken in the same sequence, the figures for `CSc1cc(C)[nH]c(=O)c1CNC(=O)c1c(C)n([C@H](C)C2CCNC[C@H]2F)c2ccccc12` (stereo partly drawn) [Example 38, 1-((1R)-1-((3S)-3-fluoropiperidin-4-yl)ethyl)-2-methyl-N-((6-methyl-4-(methylthio)-2-oxo-1,2-dihydropyridin-3-yl)methyl)-1H-indole-3-carboxamide] were below 0.5 nM and 10 to 100 nM.
On to `CSc1cc(C)[nH]c(=O)c1CNC(=O)c1c(C)n([C@H](C)C2CCN(C#N)CC2)c2ccccc12` [Example 39, (R)-1-(1-(1-cyanopiperidin-4-yl)ethyl)-2-methyl-N-((6-methyl-4-(methylthio)-2-oxo-1,2-dihydropyridin-3-yl)methyl)-1H-indole-3-carboxamide], for which the IC50 at PRC2 containing wt EZH2 (EZH2 (IC50)) was below 0.5 nM. Also, in assay [1], the concentration for a half-maximal effect (EC50) lay in the range of 10 to 100 nM.
The like results for `CSc1cc(C)[nH]c(=O)c1CNC(=O)c1c(C)n([C@H](C)C2CCC(O)CC2)c2nc(C)ccc12` (stereo partly drawn) [Example 40, 1-((1R)-1-(4-hydroxycyclohexyl)ethyl)-2,6-dimethyl-N-((6-methyl-4-(methylthio)-2-oxo-1,2-dihydropyridin-3-yl)methyl)-1H-pyrrolo[2,3-b]pyridine-3-carboxamide] were, in that order, 0.5 to 5 nM and above 100 nM.
Regarding `CSc1cc(C)[nH]c(=O)c1CNC(=O)c1c(C)n([C@H](C)[C@H]2CCN(C)C[C@@H]2F)c2ccccc12` [Example 42, 1-((R)-1-((3R,4R)-3-fluoro-1-methylpiperidin-4-yl)ethyl)-2-methyl-N-((6-methyl-4-(methylthio)-2-oxo-1,2-dihydropyridin-3-yl)methyl)-1H-indole-3-carboxamide], the IC50 against PRC2 containing wt EZH2 (EZH2 (IC50)) was below 0.5 nM. Also, the EC50 in assay [1] was below 10 nM.
`CSc1cc(C)[nH]c(=O)c1CNC(=O)c1c(C)n([C@H](C)C2CCN(C)C[C@H]2F)c2ccccc12` (stereo partly drawn) [Example 43, 1-((1R)-1-((3S)-3-fluoro-1-methylpiperidin-4-yl)ethyl)-2-methyl-N-((6-methyl-4-(methylthio)-2-oxo-1,2-dihydropyridin-3-yl)methyl)-1H-indole-3-carboxamide] came in with an IC50 against PRC2 containing wt EZH2 (EZH2 (IC50)) below 0.5 nM. The EC50 in assay [1] lay in the range of 10 to 100 nM.
Taken in the same sequence, the figures for `CSc1cc(C)[nH]c(=O)c1CNC(=O)c1c(C)n([C@H](C)C2CCC(F)(F)CC2)c2ccccc12` [Example 45, (R)-1-(1-(4,4-difluorocyclohexyl)ethyl)-2-methyl-N-((6-methyl-4-(methylthio)-2-oxo-1,2-dihydropyridin-3-yl)methyl)-1H-indole-3-carboxamide] were below 0.5 nM and below 10 nM.
Taken in the same sequence, the figures for `CSc1cc(C)[nH]c(=O)c1CNC(=O)c1c(C)n([C@H](C)c2ccc(N(C)C)cc2)c2ccccc12` [Example 46, (R)-1-(1-(4-(dimethylamino)phenyl)ethyl)-2-methyl-N-((6-methyl-4-(methylthio)-2-oxo-1,2-dihydropyridin-3-yl)methyl)-1H-indole-3-carboxamide] were below 0.5 nM and 10 to 100 nM.
Taken in the same sequence, the figures for `CSc1cc(C)[nH]c(=O)c1CNC(=O)c1c(C)n([C@@H](C)c2ccc(N(C)C)cc2)c2ccccc12` [Example 47, (S)-1-(1-(4-(dimethylamino)phenyl)ethyl)-2-methyl-N-((6-methyl-4-(methylthio)-2-oxo-1,2-dihydropyridin-3-yl)methyl)-1H-indole-3-carboxamide] were 0.5 to 5 nM and above 100 nM.
